Assay results as given in paper PMC9138505, “Small Molecule 20S Proteasome Enhancer Regulates MYC Protein Stability and Exhibits Antitumor Activity in Multiple Myeloma” (Biomedicines, 2022).
Values joined by “and” are separate entries in the source; they are usually repeats but may differ in a detail not shown here. Equal entries are not always repeated.

Test system: RPMI-8226 cells
Assay: Gene expression profiling, NanoString nCounter PanCancer Pathways Panel, ROSALIND analysis
Format: cell-based, human
Experimental: RPMI-8226 cells were treated with vehicle or TCH-165 (10 μM) for 4 h. Total RNA was obtained using the mirVana miRNA Isolation Kit, with phenol (Thermofisher Scientific; AM1560; Waltham, MA, USA). Total RNA was quantified by Qubit (Thermofisher Scientific; Q32855; Waltham, MA, USA). and gene expression was evaluated against the nCounter® PanCancer Pathways Panel^TM according to the standard NanoString protocol.
Data were analyzed by ROSALIND® [36] with a hyperscale architecture developed by ROSALIND, Inc. (San Diego, CA, USA). Normalization, fold changes and p-values were calculated using criteria provided by NanoString. ROSALIND follows the nCounter® Advanced Analysis protocol of dividing counts within a lane by the geometric mean of the normalizer probes from the same lane. Housekeeping probes to be used for normalization are selected based on the geNorm algorithm, as implemented in the NormqPCR R library. Fold changes and p-values are calculated using the fast method as described in the nCounter Advanced Analysis 2.0 User Manual. The p-value adjustment is performed using the Benjamini–Hochberg method of estimating false discovery rates (FDR). Clustering of genes for the final heatmap of differentially expressed genes was done using the PAM (Partitioning Around Medoids) method using the fpc R library. Hypergeometric distribution was used to analyze the enrichment of pathways, gene ontology, domain structure and other ontologies. The topGO R library was used to determine local similarities and dependencies between GO terms in order to perform Elim pruning correction. Several database sources were referenced for enrichment analysis, including Interpro [40], NCBI [41], MSigDB [42, 43], REACTOME [44], WikiPathways. Enrichment was calculated relative to a set of background genes relevant to the experiment.

[1] = RPMI-8226 cells, TCH-165 treatment samples 1-3

## CCOC(=O)[C@]1(c2ccccc2)N=C(c2ccc(OC)cc2)N(Cc2ccccc2)[C@@H]1c1ccc(NCc2ccccc2)cc1 [TCH-165]
RPMI-8226, TCH-165 samples 1-3
  VEGFC normalized gene expression: 4.571 and 4.699 and 4.731
  VHL normalized gene expression: 9.098 and 9.164 and 9.268
  WEE1 normalized gene expression: 9.934 and 9.744 and 9.778
  WHSC1L1 normalized gene expression: 9.091 and 9.1675 and 9.063
  WHSC1 normalized gene expression: 9.949 and 9.835 and 9.719
  WIF1 normalized gene expression: 5.758 and 4.855 and 4.805
  WNT2B normalized gene expression: 5.308 and 4.427 and 4.528
  WNT2 normalized gene expression: 5.827 and 5.242 and 5.592
  WNT3 normalized gene expression: 5.044 and 4.7789 and 4.9095
  WNT4 normalized gene expression: 4.488 and 3.817 and 3.5707
  WNT5A normalized gene expression: 6.308 and 6.154 and 6.184
  WNT6 normalized gene expression: 4.924 and 4.739 and 4.437
  WNT7A normalized gene expression: 5.208 and 4.962 and 4.9095
  WNT7B normalized gene expression: 3.723 and 3.27 and 3.805
  WNT10B normalized gene expression: 5.259 and 5.27 and 5.211
  WNT11 normalized gene expression: 4.308 and 4.154 and 3.876
  WNT16 normalized gene expression: 4.986 and 4.27 and 4.693
  WT1 normalized gene expression: 4.571 and 4.476 and 4.341
  XPA normalized gene expression: 8.195 and 7.97 and 8.109
  XRCC4 normalized gene expression: 8.283 and 8.506 and 8.426
  ZAK normalized gene expression: 4.793 and 4.2133 and 4.238
  ZBTB16 normalized gene expression: 2.986 and 2.891 and 3.0682
  ZBTB32 normalized gene expression: 4.101 and 4.093 and 3.731
  ZIC2 normalized gene expression: 4.86 and 4.154 and 4.291
[1]
  Normalized gene expression, ACVR1C: 4.723 and 4.614 and 4.693
  Normalized gene expression, ALKBH2: 6.955 and 6.808 and 6.991
  Normalized gene expression, ALKBH3: 8.467 and 8.37 and 8.417
  Normalized gene expression, AMER1: 6.704 and 6.569 and 6.56
  Normalized gene expression, APH1B: 6.101 and 5.7789 and 5.991
  Normalized gene expression, ARID1B: 9.42 and 9.304 and 9.241
  Normalized gene expression, ARID2: 9.514 and 9.28 and 9.287
  Normalized gene expression, ASXL1: 9.934 and 9.758 and 9.627
  Normalized gene expression, BIRC7: 4.401 and 4.2133 and 4.0682
  Normalized gene expression, BMP8A: 6.156 and 5.759 and 5.787
  Normalized gene expression, BRIP1: 8.576 and 8.341 and 8.466
  Normalized gene expression, CACNA2D3: 2.986 and 2.154 and 2.483
  Normalized gene expression, CACNA2D4: 4.793 and 4.739 and 4.291
  Normalized gene expression, CACNG6: 5.101 and 4.093 and 4.653
  Normalized gene expression, CALML6: 4.986 and 4.996 and 5.038
  Normalized gene expression, CARD11: 6.55 and 6.729 and 6.472
  Normalized gene expression, CASP12: 5.208 and 4.891 and 4.653
  Normalized gene expression, CCNB3: 2.401 and 3.3768 and 3.184
  Normalized gene expression, COL6A6: 3.986 and 4.324 and 4.184
  Normalized gene expression, COL24A1: 5.488 and 5.2133 and 5.316
  Normalized gene expression, COL27A1: 4.986 and 5.154 and 5.098
  Normalized gene expression, CREB3L1: 3.86 and 3.657 and 3.39
  Normalized gene expression, CREB3L3: 2.723 and 2.891 and 2.943
  Normalized gene expression, CREB3L4: 7.001 and 6.678 and 6.702
  Normalized gene expression, CRLF2: 5.723 and 5.798 and 5.75
  Normalized gene expression, CXXC4: 6.156 and 6.2133 and 5.858
  Normalized gene expression, DTX3: 3.986 and 4.2133 and 4.238
  Normalized gene expression, FAAP24: 7.343 and 7.012 and 7.17
  Normalized gene expression, FBXW7: 6.571 and 6.488 and 6.528
  Normalized gene expression, GDF6: 4.101 and 4.657 and 4.0068
  Normalized gene expression, GNG12: 4.793 and 4.855 and 4.693
  Normalized gene expression, H3F3C: 12.4579 and 12.5235 and 12.4804
  Normalized gene expression, HDAC10: 8.066 and 7.808 and 7.722
  Normalized gene expression, HDAC11: 5.156 and 4.927 and 5.291
  Normalized gene expression, HES5: 6.355 and 5.657 and 5.893
  Normalized gene expression, HHIP: 3.986 and 3.739 and 3.653
  Normalized gene expression, IL22RA1: 5.156 and 5.0613 and 5.316
  Normalized gene expression, IL22RA2: 5.445 and 4.817 and 4.437
  Normalized gene expression, IL23R: 4.986 and 4.614 and 4.291
  Normalized gene expression, KMT2C: 9.426 and 9.461 and 9.455
  Normalized gene expression, LAMA1: 4.986 and 4.27 and 4.184
  Normalized gene expression, MAML2: 8.948 and 9.039 and 8.92
  Normalized gene expression, NFKBIZ: 7.259 and 6.9093 and 6.832
  Normalized gene expression, NKD1: 5.445 and 5.3768 and 5.437
  Normalized gene expression, NSD1: 7.758 and 7.832 and 7.75
  Normalized gene expression, PAK7: 2.986 and 3.891 and 3.39
  Normalized gene expression, PDGFC: 6.509 and 6.415 and 6.1271
  Normalized gene expression, PDGFD: 4.401 and 4.27 and 4.0068
  Normalized gene expression, PHF6: 9.829 and 9.914 and 9.8
  Normalized gene expression, PLA2G4E: 3.86 and 4.029 and 4.0682
  Normalized gene expression, PLA2G4F: 4.208 and 4.154 and 3.483
  Normalized gene expression, POLD4: 8.314 and 8.1355 and 8.194
  Normalized gene expression, PRMT8: 4.308 and 4.476 and 4.341
  Normalized gene expression, PTCRA: 3.986 and 4.3768 and 4.238
  Normalized gene expression, PTPN5: 4.571 and 4.476 and 4.39
  Normalized gene expression, SHC4: 5.571 and 4.891 and 5.0068
  Normalized gene expression, SOX17: 4.101 and 4.154 and 3.483
  Normalized gene expression, SPRY4: 5.044 and 5.093 and 5.366
  Normalized gene expression, SUV39H2: 8.912 and 8.7789 and 8.832
  Normalized gene expression, TBL1XR1: 13.2408 and 13.1822 and 13.1378
  Normalized gene expression, TCF7L1: 5.101 and 4.739 and 5.461
  Normalized gene expression, THEM4: 7.581 and 7.249 and 7.3536
  Normalized gene expression, TNN: 4.986 and 4.7789 and 4.39
  Normalized gene expression, TRAF7: 10.2015 and 10.0643 and 10.0175
  Normalized gene expression, TSLP: 4.571 and 4.699 and 4.769
  Normalized gene expression, WNT5B: 5.208 and 5.093 and 5.238
  Normalized gene expression, WNT10A: 5.924 and 6.045 and 6.17
